{"source": "patent US4952493A", "about": "“Peptide substrates for detecting virus-specified protease activity” (priority 1987, dated 1990)", "system": "virus-specified protease activity in extracts of Poliovirus Type 2 infected HeLa-O cells", "assay_type": "biochemical", "conditions": "pH 5", "note": "“And” between values parts separate entries of the source, which are not always exact repeats. Equal values may be shown once. Numbered stars: 1 amine (or outer) side, 2 acyl side, 3 side chain; on linkers, the order of the positions; unused ones are H or OH. Peptide text beside a SMILES is read from it. * marks the point of attachment. AMC = Cc1cc(=O)oc2cc(N*)ccc12; Suc = O=C(CCC(=O)[*:2])[*:1]"}
{"molecule": "Cc1cc(=O)oc2cc(NC(=O)[C@H](CCC(N)=O)NC(=O)[C@H](CC(C)C)NC(=O)CNC(=O)[C@H](Cc3ccccc3)NC(=O)CCC(=O)O)ccc12", "note": "[Suc-Phe-Gly-Leu-Gln-AMC] (Suc-FGLQ-{AMC})", "values": [{"measurement": "Protease Activity, AMC Substrate", "value": "22.5 and 11.4"}]}
